Measured values reported in patent publication US8258081B2, “Use of C3 to C14 aliphatic aldehydes, ketones and primary and secondary C3 to C7 aliphatic alcohols to inhibit sprouting of potato tubers” (Washington State University Research Foundation, priority 2007, dated 2012).

Experiments:
Premier Russet tubers = assay: Long term sprout inhibition during storage at 9° C.; format: in vivo, potato; details: 0.75 mmol/kg; for duration of sprout suppression: re-applied between second and third month
Method: FIG. 4. Effect of trans-2-hexen-1-ol, 2-heptanol, decanal and 3-decanone on sprouting in Premier Russet tubers during long term storage at 9° C.
The objective of this study was to determine the extent to which trans-2-hexen-1-ol, 2-heptanol, decanal, and 3-decanone inhibit sprouting during extended storage under typical commercial storage conditions. Premier Russet tubers were treated separately with 0.75 mmol/kg of each compound in 190 L plastic barrels at room temperature. Chemicals were volatilized from filter paper within the barrels which were sealed for 24 hours during application. Tubers were then stored at 9° C. and sampled monthly to determine the amount of sprouting on a per tuber basis. All treatments were re-applied between the second and third month of storage. […] 2-heptanol and decanal suppressed sprouting for 114 days (about 4 months of control). 3-decanone suppressed sprouting for 83 days.

potato tubers [1] = assay: Sprout inhibition by C5 to C7 alcohols, sprout fresh weight 21 days after treatment at 18° C.; format: in vivo; details: 24 h treatment
Method: (§1) The objective of this study was to determine the metabolites of 3-nonen-2-one (3N2) and trans-2-nonenal (T2N), which are two examples of α,β-unsaturated aldehydes and ketones that inhibit sprouting in potatoes as described in U.S. Pat. No. 6,855,669. Potato tubers were treated with 3N2 or T2N (0.75 mmol/kg tuber) for 24 h in a closed chamber. The chemicals were volatilized from filter paper inside the chamber. The tubers were removed from the treatment chamber and placed at 9° C. for up to 28 days.
The objective of this study was to determine the extent to which 1-heptanol, 1-hexanol, 2-heptanol, trans-2-hepten-1-ol, trans-2-hexen-1-ol and 1-pentanol (C5 to C7 alcohols) inhibit sprouting of potato tubers. Tubers were treated separately with 0.25, 0.5, 0.75 or 1 mmol/kg of each alcohol for 24 h as described in Example 1. The treated tubers were placed at 18° C. and sprout fresh weights were measured 21 days after treatment. […] C7 alcohols inhibited sprouting by about 50 to about 100%, depending on the precise treatment.

potato tubers [2] = assay: Sprout inhibition by 3N2, 2-nonanone and 2-nonanol, sprout fresh weight 21 days after treatment at 18° C.; format: in vivo; details: for % Inhibition of sprouting: 24 h treatment; for inhibition of sprout growth relative to non-treated controls: 0.5 and 0.75 mmol/kg
Method: as §1
Tubers were treated separately as described in Example 1 with 0, 0.25, 0.5, and 0.75 mmol/kg of 3N2,2-nonanone, and 2-nonanol. The treated tubers were placed at 18° C. and sprout fresh weights were measured 21 days after treatment.

potato tubers [3] = assay: Residues and metabolites of 3N2 and T2N in treated potato tubers; details: for persistence of metabolite residue: tubers treated with 0.75 mmol/kg parent compound, 9° C., 28 days; for metabolites formed in tubers: tubers treated with 0.75 mmol/kg for 24 h, stored at 9° C. up to 28 days
Method: FIG. 1. Levels of 3-nonen-2-one, 2-nonanone, and 2-nonanol in tubers initially treated with 0.75 mmol/kg 3-nonen-2-one and stored at 9° C. Content of residues in the outer 20 mm of tuber.
FIG. 2. Levels of trans-2-nonenal, nonanal, trans-2-nonen-1-ol and 1-nonanol in tubers initially treated with 0.75 mmol/kg trans-2-nonenal and stored at 9° C. Content of residues in the outer 20 mm of tuber.
as §1
Samples were taken for analysis of residues and metabolite identification over the 28-day storage period.

potato tubers [4] = assay: Sprout inhibition by T2N and its metabolites, sprout fresh weight 21 days after treatment at 19° C.; format: in vivo; details: for % Inhibition of sprouting: 24 h treatment
Method: as §1
The objective of this study was to determine the extent to which nonanal, 1-nonanol, and trans-2-nonene-1-ol (metabolites of T2N) inhibit sprouting of potato tubers relative to T2N. Tubers were treated separately with 0.25, 0.5 and 0.75 mmol/kg of T2N, nonanal, 1-nonanol, and trans-2-nonene-1-ol for 24 h as described in Example 1. The treated tubers were placed at 19° C. and sprout fresh weights were measured 21 days after treatment. T2N inhibited sprouting (100%) at all concentrations. Nonanal and 1-nonanol inhibited sprouting by 13 to 51%, depending on the compound and the concentration that was used.

Russet Burbank tubers = assay: Sprout inhibition by mixtures of 3N2 and 2-nonanone, sprout fresh weight 21 days after treatment at 22° C.; format: in vivo, potato
Method: FIG. 3. Effects of 3-nonen-2-one (3N2) in various combinations with 2-nonanone on sprouting of Russet Burbank tubers. The compounds were applied as described in Example 1. Tubers were treated for 24 h, removed from treatment chambers, and placed at 22° C. to sprout for 3 weeks. Sprout fresh weight is expressed as a percentage of control (non-treated), which were 100% sprouted.
as §1
The objective of this study was to determine the efficacy of mixtures of 3N2 and its metabolite, 2-nonanone, on sprout inhibition. Tubers were treated as described in Example 1 with 0 to 0.75 mmol/kg of 3N2 combined factorially with 0 to 0.75 mmol/kg of 2-nonanone. The treated tubers were placed at 22° C. and sprout fresh weights were measured 21 days after treatment. […]

potatoes = details: with two applications, table-stock and processing potatoes; cited from earlier work

## CCCCCCCCCC=O [decanal]
Premier Russet tubers
  duration of sprout suppression: 114 days

## CCCCCO [1-pentanol]
Potato tubers [1]; 0.25 mmol/kg tubers
  % Inhibition of sprouting: 7.5%
Potato tubers [1]; 0.50 mmol/kg tubers
  % Inhibition of sprouting: 32.5%
Potato tubers [1]; 0.75 mmol/kg tubers
  % Inhibition of sprouting: 45.8%

## CCCCCCCC(=O)CC [3-decanone]
Premier Russet tubers
  duration of sprout suppression: 83 days

## CCCCCCCC(C)O (stereo not drawn) [2-nonanol]
Potato tubers [2]; 0.25 mmol/kg tubers
  % Inhibition of sprouting: 65.1%
Potato tubers [2]; 0.5 mmol/kg tubers
  % Inhibition of sprouting: 79.8%
Potato tubers [2]; 0.75 mmol/kg tubers
  % Inhibition of sprouting: 72.9%
Potato tubers [3]
  persistence of metabolite residue: most persistent

## CCCCCCCCCO [1-nonanol]
Potato tubers [4]; 0.25 mmol/kg tubers
  % Inhibition of sprouting: 28.3%
Potato tubers [4]; 0.5 mmol/kg tubers
  % Inhibition of sprouting: 24.5%
Potato tubers [4]; 0.75 mmol/kg tubers
  % Inhibition of sprouting: 50.9%

## CCCCCC(C)O (stereo not drawn) [2-heptanol]
Potato tubers [1]; 0.25 mmol/kg tubers
  % Inhibition of sprouting: 49.4%
Potato tubers [1]; 0.50 mmol/kg tubers
  % Inhibition of sprouting: 89.0%
Potato tubers [1]; 0.75 mmol/kg tubers
  % Inhibition of sprouting: 97.7%
Premier Russet tubers
  duration of sprout suppression: 114 days

## CCCCCCCO [1-heptanol]
Potato tubers [1]; 0.25 mmol/kg tubers
  % Inhibition of sprouting: 51.8%
Potato tubers [1]; 0.50 mmol/kg tubers
  % Inhibition of sprouting: 94.0%
Potato tubers [1]; 0.75 mmol/kg tubers
  % Inhibition of sprouting: 95.7%

## CCCCCC=CC(C)=O [3-nonen-2-one, reference compound]
Potato tubers [2]; 0.25 mmol/kg tubers
  % Inhibition of sprouting: 99.6%
Potato tubers [2]; 0.5 mmol/kg tubers
  % Inhibition of sprouting: 99.9%
Potato tubers [2]; 0.75 mmol/kg tubers
  % Inhibition of sprouting: 99.9%
Potato tubers [2]
  inhibition of sprout growth relative to non-treated controls: substantially inhibited sprout growth
Potato tubers [3]
  metabolites formed in tubers: 2-nonanone and 2-nonanol
Russet Burbank tubers; 0.75 mmol/kg 3N2 applied alone
  Sprout growth (fresh weight) as % of non-treated tubers: 9%

## CCCCCC/C=C/C=O [trans-2-nonenal, reference compound]
Potato tubers [3]
  metabolites formed in tubers: trans-2-nonen-1-ol, nonanal and 1-nonanol
Potato tubers [4]; 0.25 mmol/kg tubers
  % Inhibition of sprouting: 100%
Potato tubers [4]; 0.5 mmol/kg tubers
  % Inhibition of sprouting: 100%
Potato tubers [4]; 0.75 mmol/kg tubers
  % Inhibition of sprouting: 100%
Potato tubers [4]; over all concentrations (0.25, 0.5 and 0.75 mmol/kg)
  inhibition of sprouting relative to untreated control: 100%

## CCCCCCO [1-hexanol]
Potato tubers [1]; 0.25 mmol/kg tubers
  % Inhibition of sprouting: 36.6%
Potato tubers [1]; 0.50 mmol/kg tubers
  % Inhibition of sprouting: 61.3%
Potato tubers [1]; 0.75 mmol/kg tubers
  % Inhibition of sprouting: 71.9%

## CCCC/C=C/CO [trans-2-hepten-1-ol]
Potato tubers [1]; 0.25 mmol/kg tubers
  % Inhibition of sprouting: 91.7%
Potato tubers [1]; 0.50 mmol/kg tubers
  % Inhibition of sprouting: 98.7%
Potato tubers [1]; 0.75 mmol/kg tubers
  % Inhibition of sprouting: 99.4%

## CC(C)OC(=O)Nc1cccc(Cl)c1 [CIPC, chlorpropham]
potatoes
  duration of sprout inhibition / extended storage life: up to 1 year

## CCCCCCCCC=O [nonanal]
Potato tubers [4]; 0.25 mmol/kg tubers
  % Inhibition of sprouting: 13.2%
Potato tubers [4]; 0.5 mmol/kg tubers
  % Inhibition of sprouting: 32.1%
Potato tubers [4]; 0.75 mmol/kg tubers
  % Inhibition of sprouting: 17.0%

## CCCCCC/C=C/CO [trans-2-nonen-1-ol]
Potato tubers [3]
  persistence of metabolite residue: most persistent metabolite
Potato tubers [4]; 0.25 mmol/kg tubers
  % Inhibition of sprouting: 8.9%
Potato tubers [4]; 0.5 mmol/kg tubers
  % Inhibition of sprouting: 62.8%
Potato tubers [4]; 0.75 mmol/kg tubers
  % Inhibition of sprouting: 31.6%

## CCC/C=C/CO [trans-2-hexen-1-ol]
Potato tubers [1]; 0.25 mmol/kg tubers
  % Inhibition of sprouting: 96%
Potato tubers [1]; 0.50 mmol/kg tubers
  % Inhibition of sprouting: 100.0%
Potato tubers [1]; 0.75 mmol/kg tubers
  % Inhibition of sprouting: 100.0%
Premier Russet tubers; after 83 days
  damage to the tuber periderm: excessive damage to the periderm
Premier Russet tubers; up to 83 days
  sprout control: sprouts were effectively controlled up to this point

## CCCCCCCC(C)=O [2-nonanone]
Potato tubers [2]; 0.25 mmol/kg tubers
  % Inhibition of sprouting: 77.22%
Potato tubers [2]; 0.5 mmol/kg tubers
  % Inhibition of sprouting: 97.9%
Potato tubers [2]; 0.75 mmol/kg tubers
  % Inhibition of sprouting: 98.8%
Potato tubers [2]
  inhibition of sprout growth relative to non-treated controls: substantially inhibited sprout growth
Russet Burbank tubers; average of 0.5 and 0.75 mmol/kg 2-nonanone
  Sprout growth (fresh weight) as % of non-treated tubers: 58%
